Reference: patent US20190358201A1 (NantCell, Inc., priority 2018, published 2019)

Columns and labels:
[1] = Tolerability of higher total cumulative doses of aldoxorubicin in patients; assay type: in vivo, human
Procedure: Based on the results above, the inventors investigated whether even higher total cumulative doses of aldoxorubicin could be tolerated. To that end, patients were administered total cumulative dosages of up to 3,000 mg/m^2, up to 4,000 mg/m^2, up to 5,000 mg/m^2, up to 6,000 mg/m^2, up to 7,000 mg/m^2, up to 8,000 mg/m^2, up to 9,000 mg/m^2, up to 10,000 mg/m^2, up to 11,000 mg/m^2, up to 12,000 mg/m^2, up to 13,000 mg/m^2, up to 14,000 mg/m^2, and even higher. […] As described herein, cardiotoxicity may be monitored by monitoring the level of metabolite doxorubicinol in the cardiac cells. Suitable cumulative dosages of aldoxorubicin include those that will not adversely affect LVEF. As such, LVEF of patients receiving aldoxorubicin will typically be in the range of 55% to 70%. Thus, in some embodiments, the patients may have LVEF of 55%-60%, or 60%-65%, or 65%-70%. Less preferably, aldoxorubicin may be administered to the patient until reaching a slightly lower than normal LVEF, say between 50%-54%, or 45%-50%, or 40%-45%.

[2] = cited from earlier work
[3] = Formation of doxorubicinol metabolite and pharmacokinetics after administration; conditions: after administration to patients
soft tissue sarcoma = conditions: vs investigator's choice, entire study population; p=0.12, 95% CI 0.64-1.06; cited from earlier work
[4] = Sensitivity and worst-case sensitivity analysis of PFS, aldoxorubicin vs doxorubicin (ITT population, independent assessment); assay type: in vivo, human; conditions: for HR (95% CI): stratified Cox regression; for PFS Events: 42 doxorubicin / 84 aldoxorubicin patients
Procedure: Sensitivity Analysis: To assess the impact of censoring the 8 patients with no baseline imaging at the date of randomization, a sensitivity analysis was conducted where a PFS event was imputed at the date of randomization. This analysis is presented in Table 1 showing the sensitivity analysis of PFS (ITT Population^a).
(§1) PFS is defined as the time from randomization to the date of first objective documentation of disease progression or death (any cause), whichever comes first. CI=Confidence interval; ECOG=Eastern Cooperative Oncology Group; HR=Hazard ratio; PFS=Progression-free survival; PS=Performance status. ^a The ITT Population comprised all randomized patients. ^bP-value is from stratified log-rank test with ECOG PS (0 to 1, 2) and chemotherapy (no prior chemotherapy or prior adjuvant/neoadjuvant chemotherapy) as stratification factors. Hazard ratio and 95% CI are from a Cox regression model stratified by ECOG PS (0 1, 2) and chemotherapy (no prior chemotherapy or prior adjuvant/neoadjuvant chemotherapy).
This analysis is presented in Table 2 (Worst-Case Sensitivity Analysis of PFS (ITT population^a)).
as §1, with “status. ^aThe” for “status. ^a The”, “randomized patients.^b P-value” for “randomized patients. ^bP-value”, “is based on a” for “is from”

[5] = LVEF changes, Phase 3 study (P3-STS-01); assay type: in vivo, human
[6] = Alopecia induction in patients; assay type: in vivo, human; conditions: aldoxorubicin administered instead of doxorubicin
[7] = LVEF changes, Phase 2 study (INNO-206-P2-STS-01); assay type: in vivo, human; conditions: for Subjects with LVEF < 50% at any post-baseline cycle / Subjects with a 10% fall in LVEF: Phase 2, doxorubicin median 4 cycles of 75 mg/m^2 (N 40), aldoxorubicin median 6 cycles of 350 mg/m^2 (N 83)
[8] = Cardiac function by 2D echocardiogram in patients treated for at least 6 cycles of aldoxorubicin (Phase 1/2 with ifosfamide/mesna and Phase 3 alone); assay type: in vivo, human
Procedure: Fifty-two patients enrolled in a Phase 1/2 study of aldoxorubicin and ifosfamide/mesna and a Phase 3 study using aldoxorubicin alone were treated for at least 6 cycles of aldoxorubicin at either 250 mg/m^2 or 350 mg/m^2 per dose i. v. every 3 weeks. Cardiac function using 2D echocardiogram was evaluated at regular intervals every two cycles of aldoxorubicin until end of treatment and every six months after completion of the treatment.
After treatment, the cumulative aldoxorubicin dose for these patients ranged from […] to 7,500 mg/m^2. […] Ventricular ejection fractions ranged from 45-74% baseline, and 50-77% at end of treatment, median being 60% both at the beginning and end of treatment. Therefore, it should be appreciated that aldoxorubicin lacks cardiotoxicity in these patients treated with aldoxorubicin, alone or in combination with ifosfamide/mesna.

[9] = sensitivity analysis of PFS, text to Table 1 / FIG. 2
[10] = sensitivity analysis, PFS event imputed at randomization for 8 patients without baseline imaging, ITT, independent assessment
[11] = sensitivity analysis, ITT, independent assessment
[12] = worst-case sensitivity analysis, PFS event imputed at date of censoring, ITT
[13] = worst-case sensitivity analysis, ITT, independent assessment
[14] = Phase 3, doxorubicin N 47, aldoxorubicin N 213

SMILES: COc1cccc2c1C(=O)c1c(O)c3c(c(O)c1C2=O)C[C@@](O)(/C(CO)=N/NC(=O)CCCCCN1C(=O)C=CC1=O)C[C@@H]3O[C@H]1C[C@H](N)[C@H](O)[C@H](C)O1 [Aldoxorubicin, (6-maleimidocaproyl) hydrazone derivative of doxorubicin]
- Cardiotoxicity ([1]; cumulative dose equivalent to doxorubicin significantly more than 10× 550 mg/m^2): no or substantially reduced cardiotoxicity
- Cardiotoxicity ([1]; patients, doxorubicin equivalent doses even beyond 3000 mg/m^2): no cardiotoxicity was observed
- Tolerability, cardiotoxicity and/or LVEF ([1]; total cumulative doses of 14,000 mg/m^2): tolerated without any significant effect on cardiotoxicity and/or LVEF
- Recommended doxorubicin equivalent dose ([2]; Clin Cancer Res 2007, 13(16)): 260 mg/m^2
- Formation of doxorubicinol [3]: no detectable doxorubicinol
- Formation of doxorubicinol ([3]; listed as doxorubicin after modification with N-c-maleimidocaproic acid hydrazide): did not lead to significant quantities of doxorubicinol
- PFS hazard ratio (HR) (soft tissue sarcoma): 0.81
- Median PFS [4, 9]: 170 days
- HR as stated in text ([4]; sensitivity analysis of PFS, aldoxorubicin vs doxorubicin, p=0.032, 95% CI [0.38, 0.95]): 0.60
- HR (95% CI) ([4]; sensitivity analysis of PFS, aldoxorubicin vs doxorubicin): 0.60 (0.38, 0.95)
- PFS Events [4, 10]: 52
- Median PFS [4, 11]: 132.0 days
- HR (95% CI) ([4]; worst-case sensitivity analysis of PFS, aldoxorubicin vs doxorubicin): 0.63 (0.43, 0.93)
- PFS Events [4, 12]: 84
- Median PFS [4, 13]: 88.5 days
- Cardiotoxicity ([5]; Phase 3, 350 mg/m^2/cycle, up to 40 cycles, as compared to doxorubicin): minimal or no cardiotoxicity
- Subjects with LVEF below 50% of any post-baseline visit [5, 14]: 15 (7) n (%)
- Subjects with ≥ 20% LVEF decrease from baseline at any post-baseline visit [5, 14]: 9 (4.2) n (%)
- Alopecia induction [6]: minimal alopecia induction
- Decreases in LVEF (MUGA or echocardiogram) ([7]; Phase 2, aldoxorubicin treatment group): no clinically relevant decreases in LVEF were observed
- Subjects with LVEF < 50% at any post-baseline cycle [7]: 0 n (%)
- Subjects with a 10% fall in LVEF [7]: 9 (12.2) n (%)
- Ventricular ejection fraction, median ([8]; both at the beginning and end of treatment): 60%
- Clinical congestive heart failure ([8]; eleven patients with prior doxorubicin, cumulative aldoxorubicin dose 1,000 to 7,500 mg/m^2): no patient developed any sign or symptom of clinical congestive heart failure
- Ventricular ejection fraction at end of treatment (range) ([8]; end of treatment, baseline range 45-74%): 50-77%
- Cardiac toxicity ([8]; up to doxorubicin equivalent doses of 7,500 mg/m^2, alone or with ifosfamide/mesna): did not find any evidence of cardiac toxicity

SMILES: COc1cccc2c1C(=O)c1c(O)c3c(c(O)c1C2=O)C[C@@](O)(C(=O)CO)C[C@@H]3O[C@H]1C[C@H](N)[C@H](O)[C@H](C)O1 [Doxorubicin, reference compound]
- Allowable maximum cumulative lifetime dose ([2]; limit set in view of cardiotoxicity): 550 mg/m^2
- Median PFS [4, 9]: 83 days
- PFS Events [4, 10]: 29
- Median PFS [4, 11]: 82.0 days
- PFS Events [4, 12]: 42
- Median PFS [4, 13]: 48.0 days
- Subjects with LVEF below 50% of any post-baseline visit [5, 14]: 9 (19.1) n (%)
- Subjects with LVEF < 50% at any post-baseline cycle [7]: 3 (8.6) n (%)
- Subjects with a 10% fall in LVEF [7]: 10 (29.4) n (%)
